The subject of data set [1] is Straub's tail reaction (hyper-muscle tone in the tail). Put plainly: Morphine induced Straub's tail phenomenon in mice. It counts as in vivo. Conditions: Mus musculus, male ddY mice, 15 min before morphine hydrochloride 12.5 mg/kg s.c., statistically significant (p<0.05).
Data set [2] concerns the target T1, serotonin 1A receptor (Rattus norvegicus, UniProt P19327).
T1 construct: To the receptor fraction of the hippocampus were added a test compound and 0.5 nM of [^3H]; 8-hydroxy-dipropylaminotetralin; from tissue; host or cells: SD rat hippocampus, membrane (receptor) fraction
T1 sequence (P19327 1-422): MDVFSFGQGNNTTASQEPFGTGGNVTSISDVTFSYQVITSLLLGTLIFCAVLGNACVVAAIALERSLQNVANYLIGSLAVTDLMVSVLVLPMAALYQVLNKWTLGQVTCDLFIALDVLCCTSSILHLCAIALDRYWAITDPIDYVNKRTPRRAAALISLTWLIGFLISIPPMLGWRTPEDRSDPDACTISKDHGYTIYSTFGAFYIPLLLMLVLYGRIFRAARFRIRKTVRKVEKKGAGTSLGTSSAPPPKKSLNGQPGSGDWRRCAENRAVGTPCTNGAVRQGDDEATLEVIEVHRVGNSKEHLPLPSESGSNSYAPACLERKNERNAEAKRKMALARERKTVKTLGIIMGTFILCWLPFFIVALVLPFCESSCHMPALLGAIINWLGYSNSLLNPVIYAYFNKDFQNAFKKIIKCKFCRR
Put plainly: Binding test on [3H] 8-hydroxy-dipropylaminotetralin (serotonin 1A receptor). Conditions: [3H] 8-OH-DPAT 0.5 nM, receptor fraction of rat hippocampus; read-out: 5HT1a.

The target in data set [3] is serotonin 2 receptor (Rattus norvegicus, UniProt P14842). Description: Binding test on [3H] ketanserin (serotonin 2 receptor). Particulars: [3H] ketanserin 0.3 nM, receptor fraction of rat cerebral cortex; read-out: 5HT2.
Chain of serotonin 2 receptor (P14842 whole entry): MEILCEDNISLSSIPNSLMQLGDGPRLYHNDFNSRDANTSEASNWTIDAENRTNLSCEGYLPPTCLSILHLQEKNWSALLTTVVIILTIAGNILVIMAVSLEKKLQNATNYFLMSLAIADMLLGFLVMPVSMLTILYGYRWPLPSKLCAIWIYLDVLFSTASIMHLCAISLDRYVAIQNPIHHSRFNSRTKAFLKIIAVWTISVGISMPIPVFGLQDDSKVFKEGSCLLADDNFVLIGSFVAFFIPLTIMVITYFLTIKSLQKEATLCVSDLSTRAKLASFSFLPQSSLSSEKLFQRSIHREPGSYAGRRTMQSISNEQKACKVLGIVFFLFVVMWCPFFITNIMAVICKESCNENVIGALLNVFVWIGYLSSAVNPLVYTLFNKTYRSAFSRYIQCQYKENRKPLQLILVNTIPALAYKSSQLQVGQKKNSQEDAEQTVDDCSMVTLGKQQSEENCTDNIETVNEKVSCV
The target in data set [4] is α1 adrenalin receptor. Put plainly: Binding test on [3H] prazosin (α1 adrenalin receptor). Also noted: species or system rat. Particulars: [3H] prazosin about 0.2 nM, receptor fraction of rat cerebral cortex.
Setting [5] is: po, p.o., read-out: minimal effective dose p.o.
The mark [6] stands for this setting: ip, i.p., read-out: minimal effective dose i.p.

For orientation: minimal effective dose means the lowest level tested that produced the effect sought. As a reminder, the melting point is the temperature of the solid-liquid transition.

Where a name gives a salt, the structure may show the parent alone. Read-outs that look alike come from different tables or passages of the source.

On to `COc1ncc(CCN2CCC(N3CCc4ccccc43)CC2)s1` [Example 65, 1-[1-(2-methoxy-5-thiazolyl)ethylpiperidin-4-yl]indoline], for which the minimal effective dose in data set [1] (setting [5]) was 30 mg/kg. The Ki stood at 8.8 nM in data set [2] and 4.8 nM in data set [3].
On to `Fc1ccc(CCN2CCC(C3CCc4ccccc43)CC2)cc1` (centres unmarked) [Example 248, 1-[1-(4-fluorophenethyl)piperidin-4-yl]indan], for which the minimal effective dose in data set [1] (setting [6]) is at most 10 mg/kg; in data set [1] (setting [5]), 30 mg/kg. Moreover, the Ki in data set [2] came out at 2.9 nM; in data set [4], 75.3 nM; in data set [3], 6.8 nM.
With `Clc1ccc2nsnc2c1NC1=NCCN1` [Tizanidine, tizanidine hydrochloride, reference compound], the minimal effective dose in data set [1] (setting [6]) and in data set [1] (setting [5]) was 1 mg/kg throughout.
As for `COc1cccc(C(O)c2ccc3c(c2)N(C2CCN(CCc4ccc(F)cc4)CC2)CC3)n1` (centres unmarked) [Example 186, 1-[1-(4-fluorophenethyl)piperidin-4-yl]-6-[1-hydroxy-1-(2-methoxypyridin-6-yl)methyl]indoline], the minimal effective dose in data set [1] (setting [5]) came out at 10 mg/kg. Moreover, the Ki in data set [2] amounted to 14.6 nM; in data set [3] it was 3.32 nM.
For `NCC(CC(=O)O)c1ccc(Cl)cc1` (centres unmarked) [Baclofen, baclofen, reference compound], the minimal effective dose in data set [1] (setting [6]) came to 3 mg/kg; in data set [1] (setting [5]), 10 mg/kg.
The molecule `OCCOc1ccc2ccn(C3CCN(CCc4ccc(F)cc4)CC3)c2c1` [Example 330, 1-[1-(4-fluorophenethyl)piperidin-4-yl]-6-hydroxyethoxyindole] gave a melting point of 118 to 119 °C. In addition, the Ki in data set [2] was 0.11 nM. Further, the Ki in data set [4] was found to be 339 nM. In addition, the Ki in data set [3] is above 20 nM.
The matching figures for `CCCNC(=O)Cc1ccc2ccn(C3CCN(CCc4ccc(F)cc4)CC3)c2c1` [Example 297, 1-[1-(4-fluorophenethyl)piperidin-4-yl]-6-(n-propylcarbamoylmethyl)indole]: 131.1 to 131.9 °C, 0.98 nM, 226 nM and 4.17 nM.
The like results for `NC(=O)Cc1ccc2ccn(C3CCN(CCc4ccc(F)cc4)CC3)c2c1` [Example 305, 1-[1-(4-fluorophenethyl)piperidin-4-yl]-6-carbamoylmethylindole] were, in that order, 159.1 to 160.8 °C, 0.06 nM, 35.9 nM and 3.29 nM.
Turning to `O=C(Cc1ccc2ccn(C3CCN(CCc4ccccc4F)CC3)c2c1)NCCO` [Example 346, 1-[1-(2-fluorophenethyl)piperidin-4-yl]-6-(2-hydroxyethyl)carbamoylmethylindole], the melting point was 127.7 to 128.6 °C. In data set [2], the Ki is 13.5 nM. In data set [4], this molecule returned a Ki of 116 nM. Further, the Ki in data set [3] came out at 1.49 nM.
The like results for `O=C(CO)NCc1ccc2ccn(C3CCN(CCc4ccccc4F)CC3)c2c1` [Example 383, 1-[1-(2-fluorophenethyl]piperidin-4-yl]-6-hydroxyacetamidomethylindole] were, in that order, 151 to 152 °C, 5.34 nM, 120 nM and 1.81 nM.
`CC(C)S(=O)(=O)NCc1ccc2ccn(C3CCN(CCc4ccc(F)cc4)CC3)c2c1` [Example 323, 1-[1-(4-fluorophenethyl)piperidin-4-yl]-6-isopropylsulfonamidomethylindole] showed a melting point of 90 to 92 °C. Moreover, the Ki in data set [2] is 0.14 nM. In addition, the Ki in data set [4] was determined as 86.9 nM. The Ki in data set [3] was above 20 nM.
The like results for `CC(C)CNC(=O)Cc1ccc2ccn(C3CCN(CCc4ccc(F)cc4)CC3)c2c1` [Example 296, 1-[1-(4-fluorophenethyl)piperidin 4-yl]-6-[N-(isobutylcarbamoyl)methyl]indole] were, in that order, 131.8 to 132.2 °C, 0.32 nM, 238 nM and 2.73 nM.
In the case of `CN1CCC(=C2c3ccccc3C=Cc3ccccc32)CC1` [Cyproheptadine, cyproheptadine hydrochloride, reference compound], in data set [1] (setting [6]), the minimal effective dose was 3 mg/kg.
In the case of `CNC(=O)NCc1ccc2ccn(C3CCN(CCc4ccc(F)cc4)CC3)c2c1` [Example 397, 1-[1-(4-fluorophenethyl)piperidin-4-yl]-6-(3-methylureido)methylindole], the melting point is 192 °C (dec.). The Ki in data set [2] was found to be 1.28 nM. Moreover, the Ki in data set [4] came to 27.1 nM. In data set [3], the Ki turned out to be 2.27 nM.
The like results for `CC(=O)NCc1ccc2ccn(C3CCN(CCc4ccccc4F)CC3)c2c1` [Example 352, 1-[1-(2-fluorophenethyl)piperidin-4-yl]-6-acetamidomethylindole] were, in that order, 101 to 102 °C, 1.58 nM, 96.7 nM and 0.75 nM.
As for `O=C1NCCN1Cc1ccc2c(c1)N(C1CCN(CCc3ccc(F)cc3)CC1)CC2` [Example 206, 1-[1-(4-fluorophenethyl)piperidin-4-yl]-6-(2-imidazolidonyl)methylindoline], the minimal effective dose in data set [1] (setting [5]) is 10 mg/kg. Also, the results for the Ki in data set [2] and in data set [3] were 1.49 nM and 2.17 nM, respectively.
Regarding `O/N=C/c1ccc(CCN2CCC(N3CCc4ccccc43)CC2)cc1` [Example 34, 1-[1-(4-hydroxyiminomethylphenethyl)piperidin-4-yl]indoline], the minimal effective dose in data set [1] (setting [6]) was at most 10 mg/kg; in data set [1] (setting [5]), 30 mg/kg. The Ki is 1.9 nM in data set [2] and 9.1 nM in data set [3].
Regarding `O=C(NCc1ccc2ccn(C3CCN(CCc4ccc(F)cc4)CC3)c2c1)C(F)F` [Example 365, 1-[1-(4-fluorophenethyl)piperidin-4-yl]-6-difluoroacetamidomethylindole], the melting point lay in the range of 79 to 80 °C. In addition, in data set [2], the Ki turned out to be 0.42 nM. Also, the Ki in data set [4] was 61.6 nM. Also, the Ki in data set [3] is 3.11 nM.
Molecule `CN(C)CCNC(=O)Cc1ccc2ccn(C3CCN(CCc4ccc(F)cc4)CC3)c2c1` [Example 307, 1-[1-(4-fluorophenethyl)piperidin-4-yl]-6-(2-dimethylaminoethyl)carbamoylmethylindole] registered a melting point of 111.8 to 112.9 °C. Also, the Ki in data set [2] was found to be 7.02 nM. Also, the Ki in data set [4] was 51.5 nM. Further, the Ki in data set [3] is 0.83 nM.
As to `Fc1ccc(CCN2CCC(n3ccc4cc5scnc5cc43)CC2)cc1` [Example 334, 1-[1-(4-fluorophenethyl)piperidin-4-yl]thiazolo[5.4-f]indole], the melting point was in the range of 152 to 154 °C. Also, the Ki in data set [2] is 0.04 nM. For the same molecule, the Ki in data set [4] is 212 nM. The Ki in data set [3] was above 20 nM.
Take `O=C(Cc1ccc2ccn(C3CCN(CCc4ccc(F)cc4)CC3)c2c1)N1CCC(O)CC1` [Example 302, 1-[1-(4-fluorophenethyl)piperidin-4-yl]-6-(4-hydroxypiperidin-1-ylcarbonylmethyl)indole]: the melting point was 190.5 to 192.2 °C (dec.). Further, the Ki in data set [2] amounted to 2.92 nM. For the same molecule, the Ki in data set [4] was found to be 143 nM. The Ki in data set [3] came to 60.5 nM.
Consider `CN(C)CCC=C1c2ccccc2C=Cc2ccccc21` [Cyclobenzaprine, cyclobenzaprine hydrochloride, reference compound], for which, in data set [1] (setting [6]), the minimal effective dose amounted to 10 mg/kg.
As for `CC(=O)NCc1ccc2c(Cl)cn(C3CCN(CCc4ccc(F)cc4)CC3)c2c1` [Example 328, 3-chloro-1-[1-(4-fluorophenethyl)piperidin-4-yl]-6-acetamidomethylindole], the melting point is 101 to 102 °C. In data set [2], the Ki amounted to 2.06 nM. In data set [4], the Ki is 140 nM. Besides, the Ki in data set [3] is above 20 nM.
The matching figures for `CCC(=O)NCc1ccc2ccn(C3CCN(CCc4ccc(F)cc4)CC3)c2c1` [Example 327, 1-[1-(4-fluorophenethyl)piperidin-4-yl]-6-propionylaminomethylindole]: 141 to 142 °C, 1.04 nM, 99 nM and 2.64 nM.
Consider `O=C(Cc1ccc2ccn(C3CCN(CCc4ccc(F)cc4)CC3)c2c1)NC(CO)CO.O=C(O)C(=O)O` [Example 304, 1-[1-(4-fluorophenethyl)piperidin-4-yl]-6-(1,3-dihydroxypropan-2-yl)carbamoylmethylindole Oxalate], for which the melting point was 213.1 to 214.5 °C (dec.). Further, the Ki in data set [2] is 8.37 nM. In data set [4], the Ki turned out to be 141 nM. The Ki in data set [3] was found to be 6.26 nM.
The matching figures for `COc1ccc(CCN2CCC(n3ccc4ccc(CNC(C)=O)cc43)CC2)cc1` [Example 351, 1-[1-(4-methoxyphenethyl)piperidin-4-yl]-6-acetamidomethylindole]: 101 to 102 °C, 0.27 nM, 175 nM and above 20 nM.

Source of the values: US6579881B2 (Eisai Co., Ltd., priority 1997, dated 2003).
